Tests used:
[1] = Chemical cleavage of the disulfide bridge with 2-mercaptoethanol (absorption and fluorescence); type: physicochemical; conditions: for fluorescence after chemical cleavage of the S—S disulfide bridge: imaging function grafted onto RAFT-(cRGD)4, 10 mM PBS, pH 7.2, [2-MCE]=85 mM; for fluorescence of the Cy5 fluorophore(s) before cleavage of the disulfide bridge: imaging function grafted onto RAFT-(cRGD)4, 0.5 or 0.10 μM in 10 mM PBS, pH 7.2
Source text: FIG. 5: Absorption and fluorescence of the imaging function Cy5-Cys-S—S-Cys-Cy5 before and after chemical cleavage of the disulfide bridge with 2-mercaptoethanol (2-MCE). A. Absorption spectrum and evolution thereof over time during the addition of 2-MCE. […] C. Evolution over time of the fluorescence of the imaging function during the addition of 2-MCE. […] FIG. 6: Absorption and fluorescence of the imaging function Cy5-Cys-S—S-Cys-QSY21 before and after chemical cleavage of the disulfide bridge with 2-mercaptoethanol (2-MCE). A. Absorption spectra and evolution thereof over time during the addition of 2-MCE. […] C. Evolution over time of the fluorescence of the imaging function during the addition of 2-MCE. […] FIG. 10: Absorption and fluorescence of the imaging function Cy5-Cys-S—S-Cys-Cy5 grafted onto RAFT-(cRGD)4, before and after chemical cleavage of the disulfide bridge with 2-mercaptoethanol (2-MCE). A. Absorption spectrum and evolution thereof over time during the addition of 2-MCE. […] C. Evolution over time of the fluorescence of the imaging function during the addition of 2-MCE. […] FIG. 11: Absorption and fluorescence of the imaging function Cy5-Cys-S—S-Cys-QSY21 grafted onto RAFT-(cRGD)4, before and after chemical cleavage of the disulfide bridge with 2-mercaptoethanol (2-MCE). A. Absorption spectrum and evolution thereof over time during the addition of 2-MCE. […] C. Evolution over time of the fluorescence of the imaging function during the addition of 2-MCE.

Hekβ3 cells = assay: Penetration into the cells, laser scanning confocal microscopy; type: cell-based; conditions: 1 to 2 hours of incubation
Protocol: FIG. 13: Penetration of the labels into the cells, imaged by laser scanning confocal microscopy. Hekβ3 cells after 1 to 2 hours incubation in the presence of a negative control RAFT(4cRAD)-Cy5 (column 1), or in the presence of RAFT(4cRGD)-Cy5 (column 2), RAFT(4cRGD)-Cy5-Cys-S—S-Cys-Cy5 (column 3), or RAFT(4cRGD)-Cy5-Cys-S—S-Cys-quencher (column 4). The penetration into the cells of the probes RAFT-(cRGD)4-Cy5, RAFT-(cRGD)4-Cy5-Cys-S—S-Cys-Cy5 and RAFT-(cRGD)4-Cy5-Cys-S—S-Cys-QSY21 was observed on Hekβ3 cells, after 1 to 2 hours of incubation.

[2] = test system: subcutaneous tumor of IGROV-1 type; assay: Optical imaging of tumors in the nude mouse (fluorescence reflectance imaging); type: in vivo, nude mice; conditions: 10 nmol/mouse i.v.; for evolution of the signal in the tumor over time / signal in the tumor compared with the control probe: IGROV-1 tumor, FIG. 12A; for contrast, ratio of signal between the tumor and the skin: compared with RAFT-(cRGD)4-Cy5-Cys-S—S-cysteine, FIG. 12B
Protocol: FIG. 12: Results of the in vivo injection of the molecular probes RAFT-(cRGD)4-Cy5-Cys-S—S-Cys=Cy5, RAFT-(cRGD)4-Cy5-Cys-S—S-Cys-QSY21, and RAFT-(cRGD)4-Cy5-Cys-S—S-Cys (control) in nude mice, imaged using a fluorescence imaging device (excitation 633 nm; detection λ>670 nm). Intravenous injection of 10 nmol of probe/mouse, in 100 μL of PBS (pH 7.1, 9.5 mM), into the tail of anesthetized mice carrying, on the back, a subcutaneous tumor of IGROV-1 type ([…] injected subcutaneously 2 weeks before imaging). A. Fluorescence intensity measured in the tumor over time. B. Ratio of the fluorescence intensities measured in the tumor and in the skin over time. C. Images obtained 10 minutes and 5 h after injection for the various molecular probes.
The mice used are female nude mice 6 to 8 weeks old, maintained under pathogen-free conditions. The IGROV-1 cells (human ovarian cancer model) are cultured in an RPMI 1640 culture medium containing 1% of glutamine, 10% of FCS, 50 U/ml of penicillin and 50 μg/ml of streptomycin. The cells are maintained at 37° C. under a humid atmosphere with 5% of CO2. 10×10^6 cells are injected subcutaneously into the back of the mice 2 weeks before injection of the molecular vectors RAFT-(cRGD)4-Cy5-Cys-S—S-Cys-Cy5 and RAFT-(cRGD)4-Cy5-Cys-S—S-Cys-QSY21. The latter are injected into the tail intravenously, in 100 μl of PBS (pH 7.1, 9.5 mM), at doses of 10 nmol/mouse.
The anesthetized mice are imaged with a fluorescence reflectance imaging (FRI) device, comprising as excitation source a crown of LEDs equipped with interference filters, emitting at 633 nm (illumination power 50 μW·cm^−2). The images are collected after filtration with an RG665 colored filter of optical density>5 at the excitation wavelength by means of a CCD camera (Orca BTL, Hamamatsu), with an exposure time of 100 ms. The signals are quantified using image processing software.

Row | Substance | fluorescence after chemical cleavage of the S—S disulfide bridge [1] | fluorescence of the Cy5 fluorophore(s) before cleavage of the disulfide bridge [1] | penetration into the cells (location of fluorescence) (Hekβ3 cells) | evolution of the signal in the tumor over time [2] | signal in the tumor compared with the control probe [2] | contrast, ratio of signal between the tumor and the skin [2] | penetration into the cells (location of fluorescence) (Hekβ3 cells; listed as RAFT-Cy5-Cys-S—S-Cys-Q)
1 | cysteine(Cy5)-S—S-cysteine(Cy5)RAFTc[RGDfK-]4 [RAFT-(cRGD)4-Cy5-Cys-S—S-Cys-Cy5] | completely released | initially self-quenched | does not enter well | gradual appearance of the signal in the tumor | more signal in the tumor | increases | 
2 | cysteine(Cy5)-S—S-cysteine(QSY21)RAFTc[RGDfK-]4 [RAFT-(cRGD)4-Cy5-Cys-S—S-Cys-QSY21] | completely released | initially self-quenched | clear fluorescence inside the cells | gradual appearance of the signal in the tumor | more signal in the tumor | increases | penetrates into the cells better
3 | cysteine(Cy5)-S—S-cysteineRAFTc[RGDfK-]4 [RAFT-(cRGD)4-Cy5-Cys-S—S-cysteine, reference compound] |  |  |  | decreases very rapidly over time |  |  | 

— patent US9421281B2, “Target vector with activable imaging function” (Centre National de la Recherche Scientifique, priority 2005, dated 2016)
